We go through 42 molecules from ChEMBL document CHEMBL5308504, “Tm Shift (DSF) assay results for EUbOPEN Chemogenomics Library” (2023).

In one experiment the target is T1, Peregrin (Homo sapiens) (UniProt P55201).
T1 sequence (whole entry): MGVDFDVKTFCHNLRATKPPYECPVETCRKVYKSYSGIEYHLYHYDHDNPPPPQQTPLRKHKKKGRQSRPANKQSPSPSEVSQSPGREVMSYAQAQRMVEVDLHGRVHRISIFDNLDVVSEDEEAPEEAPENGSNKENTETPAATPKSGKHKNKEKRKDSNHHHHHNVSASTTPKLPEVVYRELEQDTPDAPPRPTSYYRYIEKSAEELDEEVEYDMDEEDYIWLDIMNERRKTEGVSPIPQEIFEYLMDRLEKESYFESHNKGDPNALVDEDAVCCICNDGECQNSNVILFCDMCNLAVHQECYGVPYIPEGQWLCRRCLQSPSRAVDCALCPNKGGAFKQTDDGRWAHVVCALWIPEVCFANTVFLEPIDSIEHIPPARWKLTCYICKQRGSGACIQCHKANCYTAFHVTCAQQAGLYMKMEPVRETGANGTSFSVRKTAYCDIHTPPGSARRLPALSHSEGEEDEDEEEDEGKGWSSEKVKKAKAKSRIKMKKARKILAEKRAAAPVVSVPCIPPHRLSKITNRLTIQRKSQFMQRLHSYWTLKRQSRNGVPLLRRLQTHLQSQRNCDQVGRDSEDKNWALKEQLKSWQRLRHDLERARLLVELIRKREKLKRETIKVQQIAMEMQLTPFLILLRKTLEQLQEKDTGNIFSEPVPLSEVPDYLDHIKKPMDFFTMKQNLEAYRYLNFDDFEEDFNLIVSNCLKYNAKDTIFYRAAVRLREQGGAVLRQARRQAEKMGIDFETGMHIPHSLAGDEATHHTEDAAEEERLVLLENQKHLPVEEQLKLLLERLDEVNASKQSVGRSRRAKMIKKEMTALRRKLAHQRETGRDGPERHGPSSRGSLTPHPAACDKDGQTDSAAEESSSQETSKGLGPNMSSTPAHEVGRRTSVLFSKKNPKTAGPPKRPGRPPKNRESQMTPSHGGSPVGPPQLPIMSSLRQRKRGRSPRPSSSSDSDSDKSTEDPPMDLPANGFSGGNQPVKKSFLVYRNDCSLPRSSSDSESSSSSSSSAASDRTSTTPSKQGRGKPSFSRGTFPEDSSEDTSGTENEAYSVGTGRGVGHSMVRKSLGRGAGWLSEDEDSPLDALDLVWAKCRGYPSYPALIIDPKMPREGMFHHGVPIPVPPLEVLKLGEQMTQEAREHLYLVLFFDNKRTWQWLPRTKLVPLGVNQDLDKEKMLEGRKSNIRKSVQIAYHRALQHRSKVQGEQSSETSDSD
The following applies: Compound concentration 20.0 uM, Protein concentration 2.0 uM, Result type QC Liability.

Experiment [1] addresses Fibroblast growth factor receptor 3 (Homo sapiens) (UniProt P22607). The following applies: Compound concentration 20.0 uM, Protein concentration 2.0 uM, Result type QC Liability.
Description: Thermal Shift Assay. Domain: start/stop: P449-E759

Several values for one entry are separate records, joined by “and”; a condition that tells them apart may be missing. Equal values may be shown once.

Chain of Fibroblast growth factor receptor 3 (Homo sapiens) (P22607 23-806 limits assumed): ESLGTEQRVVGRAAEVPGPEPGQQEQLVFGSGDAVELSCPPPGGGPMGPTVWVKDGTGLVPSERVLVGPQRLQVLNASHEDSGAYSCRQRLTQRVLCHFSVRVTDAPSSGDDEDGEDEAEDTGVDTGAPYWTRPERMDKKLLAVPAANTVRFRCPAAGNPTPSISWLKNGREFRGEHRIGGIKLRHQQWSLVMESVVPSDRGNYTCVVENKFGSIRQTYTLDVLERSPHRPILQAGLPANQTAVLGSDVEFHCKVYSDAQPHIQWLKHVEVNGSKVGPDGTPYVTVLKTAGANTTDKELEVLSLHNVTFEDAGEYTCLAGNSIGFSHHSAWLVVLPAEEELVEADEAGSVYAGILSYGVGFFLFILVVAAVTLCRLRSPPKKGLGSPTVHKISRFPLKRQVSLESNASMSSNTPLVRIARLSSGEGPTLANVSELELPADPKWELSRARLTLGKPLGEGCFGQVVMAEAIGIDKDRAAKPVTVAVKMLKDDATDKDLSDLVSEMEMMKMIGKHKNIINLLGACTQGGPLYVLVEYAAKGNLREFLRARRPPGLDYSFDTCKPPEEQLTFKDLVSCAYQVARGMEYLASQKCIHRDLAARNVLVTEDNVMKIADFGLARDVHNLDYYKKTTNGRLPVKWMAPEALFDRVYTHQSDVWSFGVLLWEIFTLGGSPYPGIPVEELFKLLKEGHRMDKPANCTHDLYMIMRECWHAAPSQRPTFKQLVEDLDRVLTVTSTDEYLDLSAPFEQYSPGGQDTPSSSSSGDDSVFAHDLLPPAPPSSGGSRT

Turning to `CN(C(=O)CCOCCOCCOCCOCCNc1cccc2c1C(=O)N(C1CCC(=O)NC1=O)C2=O)[C@H]1CC[C@@]2(C)[C@@H](CC[C@@H]3[C@@H]2CC[C@]2(C)[C@@H](c4ccc5ccncc5c4)CC[C@@H]32)C1` (some centres undefined), the ΔTm was 3.76 °C on Peregrin (Homo sapiens) and 1.42 °C in experiment [1].

Regarding `COc1cc(-c2cc3ncccc3c(O[C@H](C)[C@H]3CNC(=O)C3)n2)cc(OC)c1OC`, the ΔTm at Peregrin (Homo sapiens) was -2.14 °C and -1.33 °C; in experiment [1], 1.61 °C and 1.56 °C.

On to `O=C(NCCN1CCC2(CC1)C(=O)NCN2c1cccc(F)c1)c1ccc2ccccc2c1`, for which the ΔTm on Peregrin (Homo sapiens) is -3.2 °C; in experiment [1], 0.36 °C.

Turning to `CC(F)(F)CN1C(=O)c2[nH]nc(-c3cccc4[nH]c(=O)oc34)c2C1c1ccc(Oc2cc(C(F)(F)F)cc(C(F)(F)F)c2)cc1` (centres undefined), the ΔTm is -0.66 °C on Peregrin (Homo sapiens) and -5.32 °C in experiment [1].

Turning to `CN(C)C(=O)c1sc2nc(N3CCC(S(C)(=O)=O)CC3)cc(C(F)(F)F)c2c1N`, the ΔTm was -2.57 °C and -1.49 °C at Peregrin (Homo sapiens); 0.65 °C and 1.05 °C in experiment [1].

In the case of `Cc1nnc2n1-c1sc(CCC(=O)N3CCOCC3)cc1C(c1ccccc1Cl)=NC2`, the values for the ΔTm (on Peregrin (Homo sapiens); in experiment [1]) were -2.21 °C and 1.44 °C, respectively.

`CCN1C(=O)c2cc(C)ccc2N(C)c2ncccc21`: the ΔTm was -1.83 °C at Peregrin (Homo sapiens) and 0.59 °C in experiment [1].

`CCCN1C(=O)c2ccc(Cl)cc2Nc2ncccc21`: the ΔTm on Peregrin (Homo sapiens) was -3.34 °C; in experiment [1], 1.35 °C.

On to `Cc1c(CN2CCC3(CC2)CN(c2ncnc4sc(CC(F)(F)F)cc24)C3)ccc2c1cc(C#N)n2CC(N)=O`, for which the ΔTm at Peregrin (Homo sapiens) was -1.41 °C; in experiment [1], 0.67 °C.

Take `O=C1COc2cc(C(=O)N(Cc3ccc(C(=O)Nc4ccncn4)cc3)C3CC3)ccc2N1`: the ΔTm is -0.77 °C at Peregrin (Homo sapiens) and 0.74 °C in experiment [1].

For `CC(C)NC(=O)[C@H]1CCC[C@H]1Nc1nc(Nc2ccc(C(=O)N(C)C3CCN(C)CC3)cc2)ncc1Cl`, the ΔTm was -1.64 °C and -0.91 °C at Peregrin (Homo sapiens); 6.71 °C and 5.98 °C in experiment [1].

As for `O=c1[nH]c(CS[C@H]2CC[C@H](O)CC2)nc2cc(OCC3CC3)cc(F)c12`, the ΔTm is -0.45 °C on Peregrin (Homo sapiens) and 0.65 °C in experiment [1].

In the case of `Cc1csc(-c2nnc(Nc3ccc(Oc4ncccc4-c4ccnc(N)n4)cc3)c3ccccc23)c1`, the ΔTm is -5.77 °C on Peregrin (Homo sapiens) and -1.73 °C in experiment [1].

As to `COc1ccc(-c2cc3c(C)nc(N)nc3n([C@H]3CC[C@H](OCCO)CC3)c2=O)cn1`, the ΔTm is 0.08 °C on Peregrin (Homo sapiens) and 0.24 °C in experiment [1].

With `CCO[C@H](COc1ccc(C(F)(F)F)cc1)CSc1ccc(OCC(=O)O)c(C)c1`, the figures for the ΔTm (at Peregrin (Homo sapiens); in experiment [1]) were -0.87 °C and 0.48 °C, respectively.

As for `C[C@H](CCC(=O)O)[C@H]1CC[C@H]2[C@@H]3[C@H](O)C[C@@H]4C[C@H](O)CC[C@]4(C)[C@H]3C[C@H](O)[C@]12C`, the ΔTm at Peregrin (Homo sapiens) was -2.19 °C; in experiment [1], 0.75 °C.

For the molecule `CC[C@@H](C(=O)OC)n1c(=O)c2ccccc2n(Cc2cn(C)c3cccc(C)c23)c1=O`, the ΔTm at Peregrin (Homo sapiens) is -3.31 °C; in experiment [1], 1.21 °C.

Regarding `O=C1CCCc2[nH]c(-c3ccnc(NCC4CC4)c3)c(Nc3ccccc3)c21`, the ΔTm was -3.57 °C on Peregrin (Homo sapiens) and 0.77 °C in experiment [1].

Turning to `O=C(O)C[C@H]1CCn2c1c(Sc1ccc(Cl)cc1)c1ccc(F)cc12`, the ΔTm is -3.8 °C on Peregrin (Homo sapiens) and -0.05 °C in experiment [1].

`CN(C)[C@H]1CCc2nc(NC(=O)c3cccc(Cn4cc(-c5ccc(C#N)cc5)cn4)c3)sc2C1`: the ΔTm was determined as 0.07 °C on Peregrin (Homo sapiens) and 0.81 °C in experiment [1].

Consider `CC(C)N(C(=O)C1CCOCC1)c1cc(F)c(Oc2ncc(Cn3nccn3)cc2C(F)(F)F)cc1C(=O)O`, for which the ΔTm on Peregrin (Homo sapiens) was -3.32 °C; in experiment [1], 0.39 °C.

As to `Cc1nc2ccc(Cl)cc2c(-c2ccccc2)c1CC(=O)O`, the ΔTm is -3.32 °C at Peregrin (Homo sapiens) and 0.68 °C in experiment [1].

For the molecule `Cc1cc(OCc2nc3ccccc3s2)ccc1NC(=O)Nc1ccc(Cl)c(Cl)c1`, the ΔTm is -2.19 °C at Peregrin (Homo sapiens) and 0.81 °C in experiment [1].

Turning to `CC1(C)C(=O)N([C@H]2CCc3c(O)cccc32)c2nc(Nc3cccc(CN4CCCC4)c3)ncc21`, the results for the ΔTm (at Peregrin (Homo sapiens); in experiment [1]) were -1.23 °C and 9.18 °C, respectively.

In the case of `O=C(O)c1cc(F)c2nc(N3[C@@H]4CC[C@H]3C[C@@H](OCc3c(-c5ccccc5OC(F)(F)F)noc3C3CC3)C4)sc2c1`, the ΔTm on Peregrin (Homo sapiens) was -2.96 °C; in experiment [1], -3.83 °C.

`CC(=O)O[C@H]1C(=O)[C@@]2(C)[C@H]([C@H](OC(=O)c3ccccc3)[C@]3(O)C[C@H](OC(=O)[C@H](O)[C@@H](NC(=O)c4ccccc4)c4ccccc4)C(C)=C1C3(C)C)[C@]1(OC(C)=O)CO[C@@H]1C[C@@H]2O`: the results for the thermal shift (ΔTm) (on Peregrin (Homo sapiens); in experiment [1]) were -2.68 °C and 0.44 °C, respectively.

As to `CC(=O)Oc1ccc2c(c1)[C@@]1(C)CCC[C@](C)(C(=O)OC(=O)[C@@]3(C)CCC[C@]4(C)c5cc(OC(C)=O)ccc5CC[C@@H]34)[C@@H]1CC2`, the ΔTm at Peregrin (Homo sapiens) was -2.67 °C; in experiment [1], 0.1 °C.

Consider `COc1cc(F)ccc1-c1cc(Nc2cc(CS(C)(=N)=O)ccn2)ncc1F` (centres undefined), for which the ΔTm on Peregrin (Homo sapiens) is -1.49 °C; in experiment [1], 3.5 °C.

On to `CN1CCN(C(=O)c2ccc(N(C)c3ncc(C(F)(F)F)c(N[C@@H]4CCC[C@@H]4C(N)=O)n3)cc2)CC1`, for which the figures for the ΔTm (on Peregrin (Homo sapiens); in experiment [1]) were -2.51 °C and 0.46 °C, respectively.

On to `COC(=O)c1sccc1S(=O)(=O)Nc1ccc(Nc2ccccc2)cc1OC`, for which the ΔTm at Peregrin (Homo sapiens) was -1.04 °C; in experiment [1], 0.39 °C.

Consider `C=CC(=O)N1CCC[C@@H](n2nc(-c3ccc(Oc4ccccc4)cc3)c3c(N)ncnc32)C1`, for which the ΔTm at Peregrin (Homo sapiens) is -1.17 °C; in experiment [1] it was -1.1 °C.

Turning to `CCOCCn1cc(C(=O)Nc2ccc(-n3nc(-c4cccnc4)cc3C(F)(F)F)cn2)ccc1=O`, the ΔTm is -3.33 °C at Peregrin (Homo sapiens) and 0.41 °C in experiment [1].

In the case of `CCN1C(=O)/C(=C(\NC2CCN(C)CC2)c2ccc3c(c2)OCO3)c2cc(C(C)=O)ccc21`, the ΔTm on Peregrin (Homo sapiens) is -1.89 °C; in experiment [1], 1.13 °C.

Turning to `CO[C@H](C)CN1CC[C@@]2(C)c3ccc(O)cc3C[C@@H]1C2(C)C`, the ΔTm at Peregrin (Homo sapiens) is -2.03 °C; in experiment [1], 0.41 °C.

Consider `Cc1[nH]nc(C(F)(F)F)c1Cc1sc2c(c1C(=O)N1C[C@](C)(O)CO1)c(=O)n(C)c(=O)n2C(C)C`, for which the results for the ΔTm (at Peregrin (Homo sapiens); in experiment [1]) were -1.85 °C and 0.52 °C, respectively.

For the molecule `COc1ccc(C(=O)N[C@H](C)c2cccc(C(=O)Nc3nc4c(s3)CN(C)CC4)c2)cc1C`, the figures for the ΔTm (on Peregrin (Homo sapiens); in experiment [1]) were -0.23 °C and 0.97 °C, respectively.

Turning to `Cc1ncsc1-c1ccc(CNC(=O)[C@@H]2C[C@@H](O)CN2C(=O)[C@@H](NC(=O)C2(F)CC2)C(C)(C)C)c(OCCOc2ccc(CN3CCN(c4cc(-c5ccccc5O)nnc4N)CC3)cc2)c1`, the ΔTm was 5.55 °C at Peregrin (Homo sapiens) and -0.75 °C in experiment [1].

For `CC(C)(C)c1cnc(CSc2cnc(NC(=O)C3CCN(CC(=O)NCCOCCOCCOCCNc4cccc5c4C(=O)N(C4CCC(=O)NC4=O)C5=O)CC3)s2)o1` (centres undefined), the ΔTm at Peregrin (Homo sapiens) was -0.35 °C; in experiment [1], 0.29 °C.

Turning to `COc1cccc(-c2c(C)c(Cc3c(F)cccc3C(F)(F)F)c3n(c2=O)[C@@H]([C@@H](N)c2ccccc2)CS3)c1F`, the thermal shift (ΔTm) is -4.1 °C at Peregrin (Homo sapiens) and -2.84 °C in experiment [1].

For `CCN1C(=O)N(c2c(F)c(OC)cc(OC)c2F)Cc2cnc3[nH]c(CN4CCOCC4)cc3c21`, the values for the ΔTm (at Peregrin (Homo sapiens); in experiment [1]) were -0.68 °C and 11.8 °C, respectively.

For the molecule `CC(C)NC(=O)[C@H]1CCC[C@H]1Nc1nc(Nc2ccc(CN(C)C)cc2)ncc1Br`, the ΔTm on Peregrin (Homo sapiens) was -1.84 °C; in experiment [1] it was 7.35 °C.

Turning to `COc1cc(-c2cc([C@H](O)C3CC3)n3ncnc(N)c23)ccc1CO`, the ΔTm at Peregrin (Homo sapiens) was -2.32 °C; in experiment [1], 1.71 °C.
